# Like-named read-outs stand apart in the source and are kept apart here.
# Key:
# [1] = LC-MS/MS quantification of drugs in oral fluid of live and post-mortem dogs; details: for detected and quantified in the sublingual region (oral fluid): Example 4, post-mortem dog, sublingual area
# [2] = LC-MS/MS quantification of drugs in muscle tissue fluid from remains of a post-mortem individual
# [3] = LC/MS/MS of muscle tissue homogenate (conventional method); details: Example 5, remains of decedent; homogenate muscle tissue:plasma 1:4
# [4] = human; for concentration detected in the sublingual region (oral fluid) / concentration detected in the submandibular gland (oral fluid): female
# [5] = post-mortem dog SF10049, FIG. 28
# [6] = PM50019 001a, liquid leaked from container
# [7] = PM50019 001b, fluid expelled by pressing muscle tissue
structure (smiles),measurement,setting,value
CC(=O)Nc1ccc(O)cc1 [acetaminophen],detected and quantified in the sublingual region (oral fluid),[1],12.20 ng/mL
same,concentration in oral fluid,[1]; [5],12.20 ng/mL
CC(N)Cc1ccccc1 (stereo not shown) [amphetamine],concentration from the muscle tissue sample (muscle tissue fluid),[2]; [6],10.4 ng/mL
same,concentration from the muscle tissue sample (muscle tissue fluid),[2]; [7],5.7 ng/mL
same,concentration from the muscle tissue homogenate,[3],< 100 ng/g
CCCC(C)(COC(N)=O)COC(=O)NC(C)C (stereo not shown) [carisoprodol],concentration detected in the sublingual region (oral fluid),[4],49.20 ng/mL
same,concentration detected in the submandibular gland (oral fluid),[4],54.38 ng/mL
O=C1CN=C(c2ccccc2Cl)c2cc([N+](=O)[O-])ccc2N1 [clonazepam],concentration in oral fluid,[4],0.34 ng/mL
COc1ccc2c3c1O[C@H]1[C@@H](O)C=C[C@H]4[C@@H](C2)N(C)CC[C@@]341 [codeine],concentration detected in the sublingual region (oral fluid),[4],5.64 ng/mL
same,concentration detected in the submandibular gland (oral fluid),[4],0.0 ng/mL
same,concentration in oral fluid,[4],4.63 ng/mL
CN(C)CCC=C1c2ccccc2C=Cc2ccccc21 [cyclobenzaprine],concentration in oral fluid,[4],4.74 ng/mL
NCC1(CC(=O)O)CCCCC1 [gabapentin],detected and quantified in the sublingual region (oral fluid),[1],205.00 ng/mL
same,concentration in oral fluid,[1]; [5],205.00 ng/mL
CNC1(c2ccccc2Cl)CCCCC1=O (stereo not shown) [ketamine],detected and quantified in the sublingual region (oral fluid),[1],408.30 ng/mL
same,concentration in oral fluid,"[1]; live dog SF10085, FIG. 21",598.30 ng/mL
same,concentration in oral fluid,"[1]; live dog SF10086, FIG. 22",592.10 ng/mL
same,concentration in oral fluid,"[1]; live dog SF10087, FIG. 23",1914.90 ng/mL
same,concentration in oral fluid,"[1]; live dog SF10088, FIG. 24",426.20 ng/mL
same,concentration in oral fluid,"[1]; live dog SF10092, FIG. 25",844.20 ng/mL
same,concentration in oral fluid,[1]; [5],408.30 ng/mL
same,concentration in oral fluid,"[1]; post-mortem dog SF10093, FIG. 26",229.50 ng/mL
CN[C@@H](C)Cc1ccccc1 [methamphetamine],concentration from the muscle tissue sample (muscle tissue fluid),[2]; [6],113.1 ng/mL
same,concentration from the muscle tissue sample (muscle tissue fluid),[2]; [7],46.1 ng/mL
same,concentration from the muscle tissue homogenate,[3],448+63 ng/g
same,concentration in oral fluid,"[1]; live dog SF10048, FIG. 27",16.20 ng/mL
CN1CC[C@]23c4c5ccc(O)c4O[C@H]2[C@@H](O)C=C[C@H]3[C@H]1C5 [morphine],concentration detected in the sublingual region (oral fluid),[4],197.42 ng/mL
same,concentration detected in the submandibular gland (oral fluid),[4],12.34 ng/mL
COc1ccc2c3c1O[C@H]1C(=O)CC[C@@]4(O)[C@@H](C2)N(C)CC[C@]314 [oxycodone],concentration in oral fluid,[4],5.53 ng/mL
COc1cccc(C2(O)CCCCC2CN(C)C)c1 (stereo not shown) [tramadol],detected and quantified in the sublingual region (oral fluid),[1],49.70 ng/mL
same,concentration in oral fluid,[1]; [5],49.70 ng/mL

# Reference: patent US20260072046A1 (priority 2015, published 2026)
